The source of these data is US20220298213A1, “IN VIVO ENGINEERED CEREBLON PROTEIN” (Vividion Therapeutics, Inc., priority 2018, published 2022).

Format in all cases: binding
One experiment addresses CRBN-318 (Homo sapiens, UniProt Q96SW2). In words: Inhibition of probe labeling at screening concentration (Table 1). Details: endogenous in cells; host or cells: cell lysate. The conditions noted are these: native folded protein, read-out: Percentage inhibition of probe labeling, CRBN_318. The protocol:
(§1) Cells were resuspended in cold PBS on ice and sonicated with a probe sonicator to achieve lysis. 200 μL of lysate containing 5 mg/ml proteome was treated with 2 μL of 100× compound stock in a 2-mL deep-well plate. The treated lysate was subsequently incubate at 25° C. for 1 hr with shaking at 600 rpm. The treated lysate was further incubated with 2 μL of 10 mM desthiobiotin iodoacetamide probe at 25° C. for 1 hr with shaking at 600 rpm. Next, the lysate was further treat with 20 μL of solution of PBS containing 11 mM MgSO4 and 2.5% Turbonuclease stock and incubated at 25° C. for 20 minutes with shaking at 600 rpm. 1.7 mL ice-cold acetone was added to each well and incubated at −20° C. for 2 hr, followed by max speed (4200 rpm) spin for 45 min. Acetone was then decanted and the plates were blotted to remove acetone. The plates were then dried in open air for 20 minutes. After drying, the plates were then covered with foil seal and stored at −80° C. overnight.

The target of another experiment is CRBN-287 (Homo sapiens, UniProt Q96SW2). Described as above. The conditions noted are these: native folded protein, read-out: Percentage inhibition of probe labeling, CRBN_287. Details: endogenous in cells; host or cells: cell lysate. As for the experimental part:
as §1

The subject of a further experiment is PRTN_F. The experiment is described as above. The conditions noted are these: 500 μM. As for the experimental part: as §1
In a further experiment the test system is PRTN_C. Described as above. The conditions noted are these: 500 μM. As for the experimental part:
as §1

For a further experiment, the system named is PRTN_J. Described as above. Particulars: 500 μM. The protocol:
as §1

A further experiment deals with PRTN_H. The description is as above. The conditions noted are these: 500 μM. The protocol: as §1
In another experiment the test system is PRTN_A. Described as above. The conditions noted are these: 500 μM. As for the experimental part: as §1
Another experiment relates to PRTN_K. The experiment is described as above. Particulars: 500 μM. As for the experimental part: as §1
In another experiment the test system is PRTN_D. The description is as above. The conditions noted are these: 500 μM. The protocol:
as §1

In a further experiment the test system is PRTN_I. The description is as above. The conditions noted are these: 500 μM. The protocol: as §1
A further experiment relates to PRTN_E. The description is as above. The conditions noted are these: 500 μM. As for the experimental part: as §1
The next experiment has as its system PRTN_B. The experiment is described as above. Particulars: 500 μM. As for the experimental part:
as §1

The next experiment concerns PRTN_G. The description is as above. The conditions noted are these: 500 μM. As for the experimental part: as §1
The target in a further experiment is T1, CRBN Cys318 (Homo sapiens, UniProt Q96SW2).
T1 construct: endogenous in cells
T1 sequence (Q96SW2 whole entry): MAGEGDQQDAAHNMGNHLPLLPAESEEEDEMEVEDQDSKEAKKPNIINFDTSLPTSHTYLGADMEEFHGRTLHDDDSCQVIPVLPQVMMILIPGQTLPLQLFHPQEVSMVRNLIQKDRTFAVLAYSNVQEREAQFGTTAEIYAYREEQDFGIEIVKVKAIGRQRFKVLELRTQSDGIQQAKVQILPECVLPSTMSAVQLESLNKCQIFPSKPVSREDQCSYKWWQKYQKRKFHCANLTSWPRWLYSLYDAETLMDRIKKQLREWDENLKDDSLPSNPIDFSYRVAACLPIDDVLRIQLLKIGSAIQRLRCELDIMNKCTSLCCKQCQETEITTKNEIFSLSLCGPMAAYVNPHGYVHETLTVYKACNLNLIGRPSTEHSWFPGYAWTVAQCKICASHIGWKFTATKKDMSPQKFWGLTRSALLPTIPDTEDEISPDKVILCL
In words: Inhibition of iodoacetamide probe labeling of CRBN cysteines, cell lysate (Table 3A). As for the experimental part: (§2) “X@Y” means that x % inhibition of iodoacetamide probe labeling was observed by treatment of cell lysate with the give compound in each row of the table for 1 h at a concentration of y micromolar. There was consistently high inhibition at C318 in addition to C287, which can be attributed to an allosteric inhibition.

The target in the next experiment is T2, CRBN Cys287 (Homo sapiens, UniProt Q96SW2).
T2 construct: endogenous in cells
T2 sequence (Q96SW2 whole entry): as above
The experiment is described as above. As for the experimental part:
as §2

[1] abbreviates: 50 micromolar, cell lysate, 1 h.

CRBN-287, sequence (Q96SW2 whole entry): as above
CRBN-318, sequence (Q96SW2 whole entry): as above

For orientation: inhibition means the relative decrease from the control value, in per cent. As to `C=CC(=O)N1CCC(Cc2cccc(-c3ccccc3NC(C)=O)c2)CC1`, the inhibition at 500 µM at CRBN-318 was 71%; on CRBN-287, 69%. Further, the “Percentage inhibition of probe labeling, PRTN_F” value (from here on “Percentage inhibition … PRTN_F”) with PRTN_F is listed as 7%. Besides, the “Percentage inhibition of probe labeling, PRTN_C” value (“Percentage inhibition … PRTN_C” for short) in the experiment with PRTN_C amounted to 3%. In the experiment with PRTN_J, the “Percentage inhibition of probe labeling, PRTN_J” value (“Percentage inhibition … PRTN_J” for short) is reported as 21%. Moreover, in the experiment with PRTN_H, the “Percentage inhibition of probe labeling, PRTN_H” value (“Percentage inhibition … PRTN_H” for short) is reported as 2%. Also, the “Percentage inhibition of probe labeling, PRTN_A” value (“Percentage inhibition … PRTN_A” for short) with PRTN_A is 8%. Besides, the “Percentage inhibition of probe labeling, PRTN_K” value (“Percentage inhibition … PRTN_K” for short) in the experiment with PRTN_K was found to be 20%. For the same compound, the “Percentage inhibition of probe labeling, PRTN_D” value (“Percentage inhibition … PRTN_D” for short) in the experiment with PRTN_D is reported as 8%. Further, the “Percentage inhibition of probe labeling, PRTN_I” value (“Percentage inhibition … PRTN_I” for short) with PRTN_I is −1%. Also, the “Percentage inhibition of probe labeling, PRTN_E” value (“Percentage inhibition … PRTN_E” for short) in the experiment on PRTN_E was found to be 9%. The “Percentage inhibition of probe labeling, PRTN_B” value (“Percentage inhibition … PRTN_B” for short) with PRTN_B stood at 8%. Further, the “Percentage inhibition of probe labeling, PRTN_G” value (“Percentage inhibition … PRTN_G” for short) with PRTN_G is 12%.

As to `C=CC(=O)N1CCC(Oc2cc(C)cc(-c3ccccc3OC)c2)CC1`, the inhibition at 500 µM on CRBN-318 and at CRBN-287 was 94% each time. In addition, the “Percentage inhibition … PRTN_F” value with PRTN_F came out at 6%. Also, the “Percentage inhibition … PRTN_C” value in the experiment on PRTN_C came out at 18%. In addition, the “Percentage inhibition … PRTN_J” value in the experiment on PRTN_J worked out at 6%. For the same compound, the “Percentage inhibition … PRTN_H” value in the experiment with PRTN_H stood at 9%. The “Percentage inhibition … PRTN_A” value in the experiment with PRTN_A is 7%. Moreover, in the experiment with PRTN_K, the “Percentage inhibition … PRTN_K” value was determined as 13%. Besides, the “Percentage inhibition … PRTN_D” value with PRTN_D stood at 9%. Further, the “Percentage inhibition … PRTN_I” value in the experiment with PRTN_I was determined as 7%. Moreover, the “Percentage inhibition … PRTN_E” value in the experiment with PRTN_E stood at 11%. Also, the “Percentage inhibition … PRTN_B” value in the experiment with PRTN_B is on record as 2%. Further, the “Percentage inhibition … PRTN_G” value in the experiment on PRTN_G worked out at 13%.

`C=CC(=O)N1CCC(Oc2cc(C)cc(-c3ccccc3)c2)CC1`: the inhibition at 500 µM turned out to be 76% on CRBN-318 and 72% at CRBN-287. In the experiment with PRTN_F, the “Percentage inhibition … PRTN_F” value is −12%. Further, in the experiment with PRTN_C, the “Percentage inhibition … PRTN_C” value is 15%. Also, the “Percentage inhibition … PRTN_J” value in the experiment on PRTN_J was −2%. The “Percentage inhibition … PRTN_H” value with PRTN_H is given as −5%. In the experiment on PRTN_A, the “Percentage inhibition … PRTN_A” value came out at 5%. The “Percentage inhibition … PRTN_K” value with PRTN_K amounted to 17%. The “Percentage inhibition … PRTN_D” value with PRTN_D was 2%. In addition, the “Percentage inhibition … PRTN_I” value in the experiment on PRTN_I came out at 0%. The “Percentage inhibition … PRTN_E” value with PRTN_E is given as 2%. Further, in the experiment with PRTN_B, the “Percentage inhibition … PRTN_B” value is −1%. In the experiment on PRTN_G, the “Percentage inhibition … PRTN_G” value was −8%.

Consider `COc1ccccc1-c1cc(C#N)cc(OC2CCN(C(=O)/C=C/CN(C)C)CC2)c1` [Al], for which the inhibition at 5 µM against CRBN Cys318 (5 micromolar, cell lysate, 1 h) is 43%; at CRBN Cys287 (5 micromolar, cell lysate, 1 h) it was 40%. For the same compound, the inhibition at 50 µM at CRBN Cys318 (setting [1]) came out at 86%; at CRBN Cys287 (setting [1]) it was 90%. For the same compound, the inhibition at 500 µM worked out at 95% on CRBN Cys318 (read-out: % inhibition of iodoacetamide probe labeling, Cys318, 500 micromolar, cell lysate, 1 h) and 97% at CRBN Cys287 (read-out: % inhibition of iodoacetamide probe labeling, Cys287).
